This note sets out measurements from paper PMC12775434, “Ultra-large virtual screening unveils potent agonists of the neuromodulatory orphan receptor GPR139” (Nature Communications, 2025).

Common to all, as to format: cell-based
The target of test [1] is T1, GPR139 (Homo sapiens, UniProt Q6DWJ6).
T1 sequence (Q6DWJ6 1-353): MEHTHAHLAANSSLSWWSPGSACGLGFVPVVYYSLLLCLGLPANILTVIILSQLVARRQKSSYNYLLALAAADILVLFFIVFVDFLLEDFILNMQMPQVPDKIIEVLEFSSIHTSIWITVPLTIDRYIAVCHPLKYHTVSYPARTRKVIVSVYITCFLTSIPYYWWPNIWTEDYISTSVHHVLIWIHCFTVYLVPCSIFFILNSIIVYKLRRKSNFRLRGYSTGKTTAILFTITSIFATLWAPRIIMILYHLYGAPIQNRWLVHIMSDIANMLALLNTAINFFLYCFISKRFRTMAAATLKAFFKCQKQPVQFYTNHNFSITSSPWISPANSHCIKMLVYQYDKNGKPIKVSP
The test is described as follows: Ca2+ mobilization assay, antagonist mode (EC80 800 nM Lundbeck Cmp 1a after 20 min preincubation), GPR139-CHOk1. The note with it: individual replicates. In short, it runs like this:
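Fluo-4-loaded GPR139-CHOk1 cells in HEPES-buffered HBSS (pH 7.4, 2.5 mM probenecid) given test compounds at 10 µM, then after 20 min challenged with 800 nM Lundbeck Cmp 1a (EC80). Calcium fluorescence read at 37 °C, 485/525 nm.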
A general note: Calcium flux is commonly read through the fluorescence of an indicator in the cells.

Test [2] deals with T2, human muscarinic acetylcholine M1 receptor (M1R) (Homo sapiens, UniProt P11229).
T2 sequence (P11229 1-460): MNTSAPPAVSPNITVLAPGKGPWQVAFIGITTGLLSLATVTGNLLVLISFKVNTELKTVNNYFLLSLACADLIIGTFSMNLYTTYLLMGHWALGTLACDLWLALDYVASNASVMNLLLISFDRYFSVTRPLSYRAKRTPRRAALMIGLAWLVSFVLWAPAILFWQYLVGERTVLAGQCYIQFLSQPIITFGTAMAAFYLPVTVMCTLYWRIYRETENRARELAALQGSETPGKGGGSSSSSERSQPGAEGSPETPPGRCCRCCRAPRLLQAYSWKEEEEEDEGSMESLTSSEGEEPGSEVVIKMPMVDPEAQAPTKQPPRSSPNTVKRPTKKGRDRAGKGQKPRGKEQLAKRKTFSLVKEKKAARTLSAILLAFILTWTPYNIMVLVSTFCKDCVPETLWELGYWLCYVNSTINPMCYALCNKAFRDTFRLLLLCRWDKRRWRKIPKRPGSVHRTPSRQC
The test is described as follows: Ca2+ mobilization counter-screen in M1R-CHOk1 cells. The note with it: 10 µM. In short, it runs like this: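 M1R-CHOk1 cells seeded at 30,000/well for 20–24 h were loaded with 2 µM Fluo-4 AM for 1 h at 37 °C in HEPES-buffered HBSS (pH 7.4, 2.5 mM probenecid). Compounds were added after baseline reads, with DMSO at most 0.3% final. Calcium mobilization was read at 37 °C, excitation 485/emission 525 nm.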

Test [3] deals with T1, GPR139. The test is described as follows: Ca2+ mobilization assay, agonist mode, stable GPR139-CHOk1 cell line. Conditions: for Ca2+ signal (% of Cmp 1a): replicate experiments. The gist of the method: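 Agonist activity of compounds is assessed in stably transfected CHO-K1 cells using the calcium dye Fluo-4 at 37 °C in HEPES-buffered HBSS (pH 7.4). Efficacy is expressed relative to the reference agonist Lundbeck Cmp 1a, set as 100%.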

Molecules are shown by their SMILES. “And” between values parts separate entries of the source, which are not always exact repeats. Identical values can stand only once. Like-named read-outs stand apart in the source and are kept apart here.

The term Emax denotes the greatest response seen or fitted, relative to the assay's reference. Turning to `COc1cc(OC)cc(C(=O)NNC(=O)Nc2cccc3ccccc23)c1` [Lundbeck Cmp 1a, reference compound], the “Ca2+ signal (% of Cmp 1a)” value is 6.33 % of Cmp 1a and 14 % of Cmp 1a and 11 % of Cmp 1a at GPR139 [1] (10 µM compound + 800 nM Cmp 1a); 92 % of Cmp 1a and 84 % of Cmp 1a and 83 % of Cmp 1a at GPR139 [1] (Vehicle + 800 nM Cmp 1a); 100 % of Cmp 1a at GPR139 [1] (Vehicle + 10 µM Cmp 1a); 104 % of Cmp 1a and 101 % of Cmp 1a and 98 % of Cmp 1a and 116 % of Cmp 1a and 117 % of Cmp 1a and 88 % of Cmp 1a and 112 % of Cmp 1a and 95 % of Cmp 1a and 103 % of Cmp 1a and 94 % of Cmp 1a at GPR139 [3] (log [Compound] M -4.5); 104 % of Cmp 1a and 115 % of Cmp 1a and 107 % of Cmp 1a and 118 % of Cmp 1a and 110 % of Cmp 1a and 88 % of Cmp 1a and 112 % of Cmp 1a and 119 % of Cmp 1a on GPR139 [3] (log [Compound] M -5.0); 96 % of Cmp 1a and 113 % of Cmp 1a and 100 % of Cmp 1a and 95 % of Cmp 1a and 84 % of Cmp 1a and 88 % of Cmp 1a and 114 % of Cmp 1a and 103 % of Cmp 1a and 108 % of Cmp 1a and 126 % of Cmp 1a on GPR139 [3] (log [Compound] M -5.5). The “Ca2+ signal (% of Cmp 1a)” value at GPR139 [3] (log [Compound] M -6.0) was 81 % of Cmp 1a and 96 % of Cmp 1a and 87 % of Cmp 1a and 69 % of Cmp 1a and 82 % of Cmp 1a and 73 % of Cmp 1a and 84 % of Cmp 1a and 75 % of Cmp 1a and 88 % of Cmp 1a and 109 % of Cmp 1a; at GPR139 [3] (log [Compound] M -6.5) it was 63 % of Cmp 1a and 62 % of Cmp 1a and 65 % of Cmp 1a and 67 % of Cmp 1a and 53 % of Cmp 1a and 60 % of Cmp 1a and 76 % of Cmp 1a and 64 % of Cmp 1a and 68 % of Cmp 1a; at GPR139 [3] (log [Compound] M -7.0), 38 % of Cmp 1a (2×) and 39 % of Cmp 1a; on GPR139 [3] (log [Compound] M -7.5), 20 % of Cmp 1a and 15 % of Cmp 1a and 23 % of Cmp 1a and 11 % of Cmp 1a and 2.33 % of Cmp 1a and 22 % of Cmp 1a and 19 % of Cmp 1a and 29 % of Cmp 1a and 16 % of Cmp 1a and 35 % of Cmp 1a; at GPR139 [3] (log [Compound] M -8.0), 1.56 % of Cmp 1a and 5 % of Cmp 1a and 17 % of Cmp 1a and -13 % of Cmp 1a and 8 % of Cmp 1a and 12 % of Cmp 1a and 9 % of Cmp 1a and 3 % of Cmp 1a and 6.33 % of Cmp 1a; on GPR139 [3] (log [Compound] M -8.5), -0.447 % of Cmp 1a and 1.52 % of Cmp 1a and 10 % of Cmp 1a and -20 % of Cmp 1a and 2.33 % of Cmp 1a and 11 % of Cmp 1a and 4.67 % of Cmp 1a and -2 % of Cmp 1a and -1 % of Cmp 1a and 5 % of Cmp 1a and 23 % of Cmp 1a. For the same molecule, the “Ca2+ signal (% of Cmp 1a)” value at GPR139 [3] (log [Compound] M -9.0) was -1.54 % of Cmp 1a and 0.497 % of Cmp 1a and 16 % of Cmp 1a and -12 % of Cmp 1a and 8 % of Cmp 1a and 9 % of Cmp 1a and 3.33 % of Cmp 1a and 13 % of Cmp 1a and 11 % of Cmp 1a. Besides, the “Ca2+ signal (% of Carbachol)” value in test [2] (individual replicates (Supplementary Figure 2)) is -13 % of Carbachol and 8 % of Carbachol; in test [2] (individual replicates (Supplementary Figure 5)) it was -0.591 % of Carbachol and 1.3 % of Carbachol and 0.449 % of Carbachol. In addition, the EC50 was 0.2 µM on GPR139 [3] (GPR139-CHOk1, read-out: EC50, Ca2+ mobilization) and 0.158 µM at GPR139 [3] (Supplementary Table 7, enantiopure compounds, read-out: pEC50, Ca2+ mobilization (converted)). In addition, the Emax at GPR139 [3] (Supplementary Table 2, normalized to Lundbeck Cmp 1a, mean ± SEM, read-out: Emax (%) Ca2+) was determined as 108 ± 3%.
